We go through 21 compounds from PubChem BioAssay AID330 (DTP/NCI, 2004).

The subject of the test is P388 leukemia ip, CD2F1 mice, survival T/C. Kind of test: NCI In Vivo Anticancer Drug Screen. Data for tumor model P388 Leukemia (intraperitoneal) in CD2F1 (CDF1) mice. The settings on record: endpoint: median survival time, higher = longer survival. A digest of the protocol: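 Mice carrying the transplanted tumor received test compound or vehicle. Survival was recorded in each group, and the value is the treated-group measurement divided by that of the vehicle-treated control group.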

Setting [1] is: dose: 100.0 mg/kg/injection, schedule: Q04DX002 (ip), vehicle: saline with Tween-80.
The mark [2] stands for this setting: dose: 200.0 mg/kg/injection, schedule: Q04DX002 (ip), vehicle: saline with Tween-80.
Setting [3] is: dose: 400.0 mg/kg/injection, schedule: Q04DX002 (ip), vehicle: saline with Tween-80.
Where [4] appears, read: dose: 50.0 mg/kg/injection, schedule: Q01DX009 (ip), vehicle: saline with Tween-80.
[5] abbreviates: dose: 100.0 mg/kg/injection, schedule: Q01DX009 (ip), vehicle: saline with Tween-80.
Setting [6] is: dose: 200.0 mg/kg/injection, schedule: Q01DX009 (ip), vehicle: saline with Tween-80.
[7] abbreviates: dose: 100.0 mg/kg/injection, schedule: Q04DX003 (ip), vehicle: saline.
Setting [8] is: dose: 200.0 mg/kg/injection, schedule: Q04DX003 (ip), vehicle: saline.
Setting [9] is: dose: 400.0 mg/kg/injection, schedule: Q04DX003 (ip), vehicle: saline.
Setting [10] is: dose: 60.0 mg/kg/injection, schedule: Q01DX005 (ip), vehicle: saline with Tween-80.
Setting [11] is: dose: 120.0 mg/kg/injection, schedule: Q01DX005 (ip), vehicle: saline with Tween-80.
Where [12] appears, read: dose: 240.0 mg/kg/injection, schedule: Q01DX005 (ip), vehicle: saline with Tween-80.
Where [13] appears, read: dose: 100.0 mg/kg/injection, schedule: Q01DX001 (ip), vehicle: saline.

SMILES strings stand for the structures. Where “and” joins values, the source holds several entries; their conditions need not be identical. Equal values may be shown once. Inconclusive results and toxic doses are left out.

On to `CC12CC(CS(=O)C1)c1ccccc1N2` (stereo not drawn), for which the T/C is 97 % of control under setting [1], 101 % of control under setting [2] and 100 % of control under setting [3].

Regarding `O=C1NC(O)c2cc(Br)cc(Br)c2O1` (stereo not drawn), the T/C (dose: 12.5 mg/kg/injection, schedule: Q01DX005 (ip), vehicle: Klucel (hydroxypropylcellulose) (HPC)) is 100 % of control; the T/C (dose: 25.0 mg/kg/injection, schedule: Q01DX005 (ip), vehicle: Klucel (hydroxypropylcellulose) (HPC)) was 101 % of control; the T/C (dose: 50.0 mg/kg/injection, schedule: Q01DX005 (ip), vehicle: Klucel (hydroxypropylcellulose) (HPC)) was 103 % of control.

In the case of `CCOC(=O)c1ccc(NC(=O)Nc2ncc(Cl)cc2Cl)cc1`, the T/C under setting [4] is 89 % of control, the T/C under setting [5] was 86 % of control and the T/C under setting [6] is 94 % of control.

In the case of `CC12CCC3C(CCC4CC(O)CCC43C)C1CC(C1(O)C(=O)Nc3ccccc31)C2=O` (stereo not drawn), the T/C reads like this: (dose: 25.0 mg/kg/injection, schedule: Q01DX009 (ip), vehicle: saline with Tween-80) 94 % of control; under setting [4], 88 % of control; under setting [5], 94 % of control.

For `COc1ccc(/C=N/Nc2nnc3c(n2)[nH]c2ccc(Br)cc23)cc1`, the T/C is 100 % of control under setting [1], 109 % of control under setting [2] and 110 % of control under setting [3].

Regarding `COc1cccc(N=C(C2=C(O)c3ccccc3C2=O)c2ccccc2)c1`, the T/C is, setting by setting: under setting [1], 101 % of control; under setting [2], 97 % of control; under setting [3], 100 % of control.

For the compound `COC(CN(C)CC(OC)OC)OC`, the T/C is 95 % of control under setting [7], 100 % of control under setting [8] and 100 % of control under setting [9].

With `COc1cccc2c1C(=O)c1c(O)c3c(c(O)c1C2=O)C[C@@](O)(c1csc(N)n1)C[C@@H]3OC1CC(N)C(O)C(C)O1` (stereo partly drawn), the T/C is, setting by setting: (dose: 1.56 mg/kg/injection, schedule: Q01DX009 (ip), vehicle: water) 150 % of control; (dose: 6.25 mg/kg/injection, schedule: Q01DX009 (ip), vehicle: water) 157 % of control and 160 % of control; (dose: 6.25 mg/kg/injection, schedule: Q04DX003 (ip), vehicle: water) 96 % of control; (dose: 12.5 mg/kg/injection, schedule: Q01DX009 (ip), vehicle: water) 155 % of control and 163 % of control; (dose: 12.5 mg/kg/injection, schedule: Q04DX003 (ip), vehicle: water) 105 % of control and 109 % of control; (dose: 25.0 mg/kg/injection, schedule: Q01DX009 (ip), vehicle: water) 178 % of control. In addition, the T/C by setting is: (dose: 25.0 mg/kg/injection, schedule: Q04DX003 (ip), vehicle: water) 118 % of control; (dose: 100.0 mg/kg/injection, schedule: Q04DX003 (ip), vehicle: water) 123 % of control.

With `O=S(=O)(O)c1ccc(/C2=c3\cc/c([n-]3)=C(\c3ccc(S(=O)(=O)O)cc3)c3ccc([n-]3)/C(c3ccc(S(=O)(=O)O)cc3)=c3/cc/c([n-]3)=C(\c3ccc(S(=O)(=O)O)cc3)c3ccc2[n-]3)cc1.[Zn]`, the T/C is, setting by setting: (dose: 0.98 mg/kg/injection, schedule: Q01DX009 (ip), vehicle: saline with Tween-80) 103 % of control and 111 % of control; (dose: 1.95 mg/kg/injection, schedule: Q01DX009 (ip), vehicle: saline with Tween-80) 100 % of control and 104 % of control; (dose: 3.9 mg/kg/injection, schedule: Q01DX009 (ip), vehicle: saline with Tween-80) 99 % of control and 114 % of control; (dose: 7.8 mg/kg/injection, schedule: Q01DX009 (ip), vehicle: saline with Tween-80) 114 % of control; (dose: 15.62 mg/kg/injection, schedule: Q01DX009 (ip), vehicle: saline with Tween-80) 100 % of control and 112 % of control.

As to `N#COc1ccc(-c2ccccc2)cc1`, the T/C under setting [10] was 90 % of control; the T/C under setting [11] was 87 % of control; the T/C under setting [12] was 86 % of control and 90 % of control.

With `CCN1N=Nc2ccccc2C1O` (stereo not drawn), the T/C reads like this: (dose: 12.5 mg/kg/injection, schedule: Q04DX002 (ip), vehicle: saline) 98 % of control; (dose: 25.0 mg/kg/injection, schedule: Q04DX002 (ip), vehicle: saline) 98 % of control; (dose: 50.0 mg/kg/injection, schedule: Q04DX002 (ip), vehicle: saline) 100 % of control.

In the case of `NCCOc1c2occc2cc2ccc(=O)oc12`, the T/C under setting [13] is 110 % of control.

As to `COc1cc2c(cc1OC(C)=O)C(=O)C(Br)CCC2` (stereo not drawn), the T/C is, setting by setting: under setting [5], 89 % of control; under setting [6], 86 % of control.

Consider `COc1ccc(OC)c(Cc2cnc3nc(N)nc(N)c3c2C)c1`, for which the T/C is 113 % of control (dose: 10.0 mg/kg/injection, schedule: Q01DX005 (ip), vehicle: dextrose); 112 % of control (dose: 10.0 mg/kg/injection, schedule: Q01DX005 (ip), vehicle: water); 115 % of control (dose: 25.0 mg/kg/injection, schedule: Q04DX003 (ip), vehicle: dextrose); 170 % of control (dose: 40.0 mg/kg/injection, schedule: Q01DX005 (ip), vehicle: dextrose); 166 % of control (dose: 100.0 mg/kg/injection, schedule: Q04DX003 (ip), vehicle: dextrose).

Take `O=C1CC(c2cccc(S(=O)(=O)O)c2)=NN1c1ccc([N+](=O)[O-])cn1`: the T/C is, setting by setting: under setting [7], 108 % of control; under setting [8], 100 % of control; under setting [9], 106 % of control.

`O=C1OC(Oc2ccccc2OC2OC(=O)c3ccccc32)c2ccccc21` (stereo not drawn): the T/C runs as follows: under setting [10], 98 % of control; under setting [11], 106 % of control; under setting [12], 100 % of control.

`CC1(C)N=C(N)N=C(N)N1c1ccc(F)c(C(F)(F)F)c1`: the T/C runs as follows: (dose: 1.0 mg/kg/injection, schedule: Q01DX009 (ip), vehicle: saline) 118 % of control; (dose: 4.0 mg/kg/injection, schedule: Q08DX002 (ip), vehicle: saline) 119 % of control; (dose: 8.0 mg/kg/injection, schedule: Q01DX009 (ip), vehicle: saline) 170 % of control; (dose: 8.0 mg/kg/injection, schedule: Q08DX002 (ip), vehicle: saline) 120 % of control; (dose: 16.0 mg/kg/injection, schedule: Q01DX009 (ip), vehicle: saline) 181 % of control; (dose: 32.0 mg/kg/injection, schedule: Q01DX001 (ip), vehicle: saline) 121 % of control. The T/C by setting is: (dose: 32.0 mg/kg/injection, schedule: Q01DX009 (ip), vehicle: saline) 190 % of control; (dose: 64.0 mg/kg/injection, schedule: Q01DX001 (ip), vehicle: saline) 121 % of control; (dose: 64.0 mg/kg/injection, schedule: Q01DX009 (ip), vehicle: saline) 90 % of control; (dose: 128.0 mg/kg/injection, schedule: Q01DX001 (ip), vehicle: saline) 122 % of control.

Turning to `O=C(CC(O)(C(F)(F)F)C(F)(F)F)c1ccc(C(=O)CC(O)(C(F)(F)F)C(F)(F)F)cc1`, the T/C reads like this: (dose: 12.5 mg/kg/injection, schedule: Q01DX009 (ip), vehicle: other) 100 % of control; (dose: 25.0 mg/kg/injection, schedule: Q01DX009 (ip), vehicle: other) 100 % of control; (dose: 50.0 mg/kg/injection, schedule: Q01DX009 (ip), vehicle: other) 100 % of control; (dose: 66.0 mg/kg/injection, schedule: Q04DX003 (ip), vehicle: other) 95 % of control; (dose: 100.0 mg/kg/injection, schedule: Q04DX003 (ip), vehicle: other) 95 % of control; (dose: 150.0 mg/kg/injection, schedule: Q04DX003 (ip), vehicle: other) 100 % of control.

In the case of `CC1C2Cc3ccc(O)cc3C1(C)CCN2Cc1ccoc1` (stereo not drawn), the T/C is, setting by setting: (dose: 50.0 mg/kg/injection, schedule: Q01DX009 (ip), vehicle: saline) 96 % of control; (dose: 100.0 mg/kg/injection, schedule: Q01DX009 (ip), vehicle: saline) 99 % of control.

Take `COC(=O)CC1C=CC(OC)[C@@]2(C)C(=O)C(OC)=CC(=O)[C@@H]12` (stereo partly drawn): the T/C reads like this: under setting [10], 101 % of control; under setting [11], 105 % of control; under setting [12], 91 % of control.

As for `COc1ccc(C2C(C#N)C(=O)N3C(=O)C(NC(C)=O)=C(O)C23)cc1` (stereo not drawn), the T/C under setting [13] was 94 % of control; the T/C (dose: 200.0 mg/kg/injection, schedule: Q01DX001 (ip), vehicle: saline) was 95 % of control; the T/C (dose: 400.0 mg/kg/injection, schedule: Q01DX001 (ip), vehicle: saline) was 97 % of control.
